The source of these data is patent US10894798B2, “Substituted dihydropyrrolopyrazole derivative” (UBE INDUSTRIES, LTD., priority 2015, dated 2021).

Some results are limits rather than exact numbers.

Assay [1] addresses T1, CDK7 (Homo sapiens, UniProt P50613).
T1 construct: purchased Carna Biosciences, Inc. 04-108
The assay can be described thus: CDK7 enzyme inhibition test. The conditions noted are these: [γ-33P]ATP, MBP substrate, 60 min preincubation at 25°C; Ki=IC50/(1+S/Km); read-out: Ki value of CDK7 inhibitory activity. It is filed as biochemical. In a few lines:
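Commercial human CDK7 with myelin basic protein substrate in HEPES pH 7.4 buffer with DTT, Triton X-100, MgCl2; compound preincubated 60 min at 25° C, then reaction run 20 min at 30° C after adding [γ-^33P]ATP (500 μM solution). TCA-precipitated ^33P-MBP counted by scintillation; IC50 converted to Ki via Ki=IC50/(1+S/Km).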

Assay [2] has as its target T2, PLK1 (Homo sapiens, UniProt P53350).
T2 construct: purchased Carna Biosciences, Inc. 05-157
The assay can be described thus: PLK1 enzyme (polo-like kinase) inhibition test. It is filed as biochemical. The conditions noted are these: [γ-33P]ATP, casein substrate; Ki=IC50/(1+S/Km); read-out: Ki value of PLK1 inhibitory activity. An outline of the steps:
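Recombinant PLK1 phosphorylates casein with [γ-^33P]ATP in MOPS buffer (pH 7.0) containing DTT and magnesium acetate, 20 min at 30° C. Reaction stopped with TCA; washed precipitate counted by liquid scintillation. IC50 for inhibition of ^33P incorporation into casein, converted to Ki via Ki=IC50/(1+S/Km).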

In assay [3] the test system is human large intestine cancer cell (HCT 116) tumor. Kind of assay: Tumor growth inhibition test in HCT 116-subcutaneously transplanted nude mouse. Particulars: dose of 100 mg/kg, repeated oral administration, HCT-116 in female BALB nude mice, control group = 100%, read-out: rate of suppression of tumor volume. It is filed as in vivo. The method, then:
A human large intestine cancer cell line (HCT-116) was cultured in a McCoy's 5A medium containing 10% FBS and 1% penicillin/streptomycin/amphotericin B and adjusted to 1.0×10^8 cells/mL with PBS or Hanks solution (HBSS(−)). The prepared cell suspension was subcutaneously injected at 0.1 mL/mouse to the right abdomens of female BALB nude mice (supplied by Charles River Laboratories Japan, Inc.). After rearing for a certain period, the long diameter (mm) and short diameter (mm) of tumor were measured with electronic calipers, and the tumor volume was calculated according to the following expression: Tumor volume (mm^3)=(Long diameter)×(Short diameter)×(Short diameter)×0.5
Individuals whose tumor volume was within the range of 50 to 200 mm^3 were selected and grouped such that the tumor volume was almost equivalent, then a test compound or only a solvent was orally administered in a repeated manner, and the body weights and tumor volume were measured. A test compound was suspended in a 0.5 w/v % aqueous methylcellulose solution (0.5% MC) (manufactured by Wako Pure Chemical Industries, Ltd.) and orally administered at 10 mL/kg in a repeated manner. When the tumor volume of the control group was defined as 100%, the rate of suppression of tumor volume (%) at each dose of the test compound was calculated.

T2 sequence (P53350 whole entry): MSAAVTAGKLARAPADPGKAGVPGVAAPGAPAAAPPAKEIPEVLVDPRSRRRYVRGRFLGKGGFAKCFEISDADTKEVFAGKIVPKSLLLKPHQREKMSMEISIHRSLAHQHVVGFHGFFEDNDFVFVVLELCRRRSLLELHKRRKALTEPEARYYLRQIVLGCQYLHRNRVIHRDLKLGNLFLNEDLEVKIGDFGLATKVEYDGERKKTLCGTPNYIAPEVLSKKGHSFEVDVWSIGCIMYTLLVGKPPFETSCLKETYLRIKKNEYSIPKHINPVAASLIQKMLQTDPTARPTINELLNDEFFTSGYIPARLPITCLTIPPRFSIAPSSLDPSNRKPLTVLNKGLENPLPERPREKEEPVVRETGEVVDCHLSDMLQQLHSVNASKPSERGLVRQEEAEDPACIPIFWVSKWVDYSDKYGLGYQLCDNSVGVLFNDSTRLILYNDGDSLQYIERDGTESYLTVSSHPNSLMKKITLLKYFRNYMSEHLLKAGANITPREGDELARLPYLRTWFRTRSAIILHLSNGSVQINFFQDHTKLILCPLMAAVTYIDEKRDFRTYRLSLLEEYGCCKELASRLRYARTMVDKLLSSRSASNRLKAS
T1 sequence (P50613 whole entry): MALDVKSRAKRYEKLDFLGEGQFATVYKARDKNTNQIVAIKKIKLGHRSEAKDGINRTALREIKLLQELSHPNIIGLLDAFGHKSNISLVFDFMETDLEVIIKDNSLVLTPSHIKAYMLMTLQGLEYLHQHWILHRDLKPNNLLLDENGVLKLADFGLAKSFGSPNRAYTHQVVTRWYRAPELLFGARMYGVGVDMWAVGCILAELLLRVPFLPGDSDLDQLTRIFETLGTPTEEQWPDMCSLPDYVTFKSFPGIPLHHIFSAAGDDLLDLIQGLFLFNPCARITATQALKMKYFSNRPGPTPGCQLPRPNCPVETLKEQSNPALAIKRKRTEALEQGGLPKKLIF
T1 sequence (P51946 whole entry partner): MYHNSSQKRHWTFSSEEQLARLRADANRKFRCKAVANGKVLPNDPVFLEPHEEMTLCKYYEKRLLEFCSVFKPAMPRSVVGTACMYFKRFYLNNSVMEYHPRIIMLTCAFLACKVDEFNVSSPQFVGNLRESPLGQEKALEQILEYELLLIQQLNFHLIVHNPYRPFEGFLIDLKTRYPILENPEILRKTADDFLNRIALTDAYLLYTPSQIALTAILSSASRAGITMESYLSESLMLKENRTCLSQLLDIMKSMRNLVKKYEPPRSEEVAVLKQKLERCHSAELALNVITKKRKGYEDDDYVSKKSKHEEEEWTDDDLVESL
T1 sequence (P51948 whole entry partner): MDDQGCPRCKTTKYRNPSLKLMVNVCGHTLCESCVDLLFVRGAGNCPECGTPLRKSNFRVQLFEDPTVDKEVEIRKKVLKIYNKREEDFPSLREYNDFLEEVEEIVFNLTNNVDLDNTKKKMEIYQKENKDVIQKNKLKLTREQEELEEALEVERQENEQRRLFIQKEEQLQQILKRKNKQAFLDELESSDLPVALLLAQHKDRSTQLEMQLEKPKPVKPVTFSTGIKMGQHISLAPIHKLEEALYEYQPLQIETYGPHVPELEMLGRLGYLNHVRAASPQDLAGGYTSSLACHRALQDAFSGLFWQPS

In the case of `Cc1ccc(C)c(NC(=O)N2Cc3c(NC(=O)C4([Si](C)(C)C)CCC4)n[nH]c3C2(C)C)c1F` [IV-669, N-(2-Fluoro-3,6-dimethylphenyl)-6,6-dimethyl-3-[1-(trimethylsilyl)cyclobutanecarboxamido]-4,6-dihydropyrrolo[3,4-c]pyrazole-5(1H)-carboxamide], the inhibition constant Ki (usually the dissociation constant of the complex between target and ligand, obtained from inhibition or displacement) in assay [1] is ≤ 50 nM; in assay [2] it was ≥ 5000 nM. Besides, the inhibition in vivo at 100 mg/kg in assay [3] is ≥ 50%.
The like results for `CC1(C)c2[nH]nc(NC(=O)C3([Si](C)(C)C)CCC3)c2CN1C(=O)Nc1c(F)cccc1Cl` [IV-113, N-(2-Chloro-6-fluorophenyl)-6,6-dimethyl-3-[1-(trimethylsilyl)cyclobutanecarboxamido]-4,6-dihydropyrrolo[3,4-c]pyrazole-5(1H)-carboxamide] were, in that order, ≤ 50 nM, ≥ 5000 nM and ≥ 50%.
